Experimental data published in US20030186946A1, “Suppression of cytotoxic protein conformers” (priority 2002, published 2003).
Where two headings read alike, the source gives them in different places. One block for each compound: values may come before it.

Experiments:
[1] = molecular target: T1, human amylin (Homo sapiens, UniProt P10997); test: Radiolabelled precipitation assay of amylin fibril formation; format: biochemical; set-up: Amylin is a 37-residue; C-terminally amidated peptide having a disulfide bridge between the cysteines at residues 2 and 7; purchased Bachem Calif; (Torrance, Calif.); host or cells: chemical synthesis; details: for effect on precipitable amyloid formation: 200 μM compound, 10 μM human amylin, 16,000×g (FIG. 8)
T1 sequence (P10997 34-70 limits assumed): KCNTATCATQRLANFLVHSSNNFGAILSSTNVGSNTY
Method: Radiolabelled Precipitation Assays. The precipitation of radiolabelled human and rat amylin fibrils was used as an independent method to monitor assembly of amylin fibrils in the presence or absence of potential inhibitors of amylin fibril formation. […] Incubation mixtures were then centrifuged at either 16,000×g or 100,000×g, for 20 min, and the amount of [^3H]-human amylin remaining in the supernatant after centrifugation was determined (Beckman LSW 3801 β-counter, USA). Results were expressed as percentages of precipitable counts per minute, relative to total radioactivity in the supernatant.
Incorporation of [^3H]-amylin into amylin fibrils was followed for 24 hours. Human amylin fibrils were precipitated by centrifugation at either 16,000×g (FIG. 7A) or at 100,000×g (FIG. 7B). Rat amylin (10 μM) in the presence of [^3H]-rat amylin was used as a non-fibril forming control (♦) (FIG. 7A). The results are shown as the percentage of precipitable radioactive amylin, relative to total radioactivity in the supernatant at each time point. Each data point represents the mean±s.e.m of three separate reactions.
The incorporation of radioactive monomeric amylin into the human amylin fibrils as they form, can be used to measure the rate at which amylin fibrils form in the presence or absence of a potential inhibitory drug. Amylin fibrils can be separated from solution by centrifugation and the amount of radioactive amylin precipitated in the amylin fibril pellet is then used as a measure of the amount of amylin fibrils present at that time.
Thioflavin-T, although not polycyclic, is widely used in fluorescent assays to measure amylin fibril formation. Incorporation of radioactivity into the pellet of an aliquot of the reaction mixture centrifuged at 16,000×g, for 20 minutes was monitored over the time periods indicated. Rat amylin (10 μM) with [^3H]-rat amylin added was used as a non fibril forming control (∘) in each experiment. The results are shown as the percentage of precipitable radioactive amyloid, relative to total radioactivity in the supernatant at each time point. Each data point represents the mean±s.e.m of three separate experiments.

[2] = molecular target: T1, human amylin; test: Electron microscopy of human amylin fibrils; format: biochemical; set-up: Amylin is a 37-residue; C-terminally amidated peptide having a disulfide bridge between the cysteines at residues 2 and 7; purchased Bachem Calif; (Torrance, Calif.); host or cells: chemical synthesis
Method: Electron Microscopy. […] Samples were removed at various time points and prepared for electron microscopy. Aliquots (8 μl) of the amylin fibril preparations were absorbed to glow-discharged carbon-coated collodion film on 200-mesh copper grids for 1 min. Grids were blotted, washed twice in droplets of deionised water and stained with 2% (w/v) uranyl acetate. Grids were examined in a Phillips Technai transmission electron microscope operated at 120 kV.
Samples were removed at various time points and prepared for electron microscopy according to the procedure described in the methods.
Electron Microscopy of human amylin fibrils in the presence and absence of quinacrine (FIG. 5). A 100 fold molar excess of quinacrine was incubated with human amylin. Samples were removed at various time points and prepared for electron microscopy according to the procedure described in the methods.
Electron Microscopy of human amylin fibrils in the presence and absence of selected polycyclic compounds (FIG. 6). […] Samples were removed and prepared for electron microscopy as described in the Methods. All experiments were performed in triplicate and the pictures above are representative of at least 6 photographs taken at each magnification.

[3] = test system: RINm5F cells; test: Cytotoxicity assay in RINm5F cells (calcein-AM / ethidium homodimer-1 staining); details: for cytotoxicity of amylin peptide to RINm5F cells: 30 μM peptide, 22 h, compared to vehicle control
Method: Cell Culture and Cytotoxicity Assays. RINm5F cells were cultured in RPMI 1640 medium containing 10% fetal bovine serum, 290 μg/mL L-glutamine, 100 IU/mL penicillin and 100 μg/mL streptomycin. Cells were plated at a density of 15×1 cells per well, incubated for 48 h, rinsed with PBS and placed in fresh medium containing Congo red. Freshly prepared human amylin in Milli-Q water, was preincubated with Congo red for 30 min, then added to the cell culture medium to give a final concentration of 30 μM. Cells were treated for 22 h with human amylin in the presence or absence of 100 μM Congo red. Cell viability was determined by double-staining with calcein-AM and ethidium homodimer-1. Green fluorescence of live cells and red fluorescence marking nuclei of dead cells were simultaneously visualized using a Zeiss Axiovert S100 microscope equipped with a Zeiss filter set # 09. Photographs were taken at 400× magnification using a Zeiss AxioCam digital camera.
A. Representative fluorescence micrograph of RINm5F cells treated with 30 μM human amylin for 22 h and stained with calcein-AM and ethidium homodimer-1 to show live cells (green) and dead cells (red). […] B. A representative micrograph of RINm5F cells treated with 30 μM human amylin and 100 μM Congo red stained as above. […] The percentage of live cells was determined for cells treated for 22 h with vehicle; 30 μM human amylin; 30 μM human amylin in the presence of 100 μM Congo red; or 30 μM rat amylin. Experiments were repeated independently 10 times except for human amylin plus Congo red (A+CR) which was repeated five times. Error bars represent the s.e.m of live and dead cell counts over 6-12 fields per condition.

[4] = molecular target: T1, human amylin; details: 10 μM thioflavin-T
Method: Thioflavin-T binding fluorescent assays. The effects of various polycyclic compounds on islet amyloid formation were measured by fluorescence spectroscopy, using a SpectraMAX Gemini XS Fluorescence Spectrophotometer (Molecular Devices Corporation, Sunnyvale, Calif.). Excitation and emission maxima were set to 450 nm and 510 nm respectively using a cutoff filter at 495 nm. Thioflavin-T binds to amylin fibrils, but not to monomeric amylin (Goldsbury et al., (1999), J. Mol. Biol., 285:33-39). […] The rate of amylin fibril formation was determined by following thioflavin-T fluorescence in the presence or absence of the potential inhibitory drug. […] Background fluorescence by acridine and acridine orange in the absence of amylin was subtracted from the experimental results. The control preparation contained human amylin and thioflavin-T in the absence of drug. The rate of fluorescence enhancement under these conditions was used to compare amylin fibril formation in the absence and presence of the drug. All other experimental conditions were identical.
Tri-prolyl amylin and rat amylin with thioflavin-T were also used as additional controls.
Each data point represents the mean±s.e.m of three separate reactions.
Effect of chlorpromazine on enhancement of thioflavin-Tfluorescence by human amylin (FIG. 2). Chlorpromazine (700 μM) (π) was incubated in 10 mM tris p H 7.4, with monomeric human amylin (70 μM) in the presence of thioflavin-T (10 μM). The fluorescence of the reaction was monitored over 24 hours as described in the methods. […] Each data point represents the mean±s.e.m of three separate reactions.
Effect of selected polycylic compounds on enhancement of thioflavin-Tfluorescence by human amylin (FIG. 3). Acridine, acridine orange, neutral red and methylene blue are selected examples of fused tricyclic ring compounds. […] Compound structures are shown adjacent to the appropriate graph. […] Fluorescence was monitored over 24 h as described in the Methods. A preparation containing human amylin and thioflavin-T only (▪), was included as a comparison in the absence of drug. […] Each data point represents the mean±s.e.m of three independent experiments.

[5] = molecular target: T1, human amylin; test: Circular dichroism assay of amylin conformation; format: biochemical; set-up: Amylin is a 37-residue; C-terminally amidated peptide having a disulfide bridge between the cysteines at residues 2 and 7; purchased Bachem Calif; (Torrance, Calif.); host or cells: chemical synthesis; details: 200 μM Amaranth, approximately 4 μM human amylin, 4% HFIP (FIG. 9F)
Method: Preparation of monomeric human amylin. Human amylin (batch 0551805) was obtained from Bachem (Torrence, Calif.). Stock solutions of amylin were prepared as described by Padrick and Miranker, 2002. Human amylin was solubilised in 6M guanidine HCL/50 mM potassium phosphate, pH 6.0, and loaded onto a C18 reversed-phase spin column (Harvard Biosciences). The column was then washed sequentially with 10% Acetonitrile, 0.2% trifluoroacetic acid and water. Monomeric amylin was eluted in 100% HFIP (hexafluoroisopropanol). This stock solution of amylin was then used for all Circular Dichroism experiments.
Circular Dichroism Assay. Circular dichroism spectra were measured on a Pi-Star 180 spectrometer (Applied Photophysics, Leatherhead, UK). Measurements were carried out in either 100% HFIP or 100 mM potassium chloride/50 mM potassium phosphate buffer (pH 7.4) and 2.5% HFIP at 25° C. A stock solution of monomeric human amylin was diluted into buffer to a final concentration of 2.5% HFIP and approximately 5 μM amylin to initiate amylin fibril formation. Spectra were collected at 1 nm intervals with a sample period of 25 μs and adaptive sampling of ±0.01 mdeg. Measurements were recorded immediately following addition of the human amylin stock solution to phosphate buffer in the presence or absence of Congo red or amaranth.
Human amylin (100 μg) was purified on a C18 spin column to give a stock solution in 100% HFIP as described in the methods. A spectrum of this stock solution was collected at 1 nm intervals in a 0.1 cm path length quartz cell (FIG. 9B). The stock solution of monomeric amylin in 100% HFIP was diluted to 2.5% HFIP in 100 mM potassium chloride/50 mM potassium phosphate buffer (pH 7.4). Human amylin concentration was approximately 5 μM. A spectrum was collected at 1 nm intervals in a 0.5 cm path length quartz cell in the absence (FIG. 9C) or presence of 20-fold molar excess of Congo red over human amylin (FIG. 9D). The stock solution of monomeric amylin in 100% HFIP was diluted to 4% HFIP in 100 mM potassium chloride/50 mM potassium phosphate buffer (pH 7.4) containing decreasing concentrations of Congo red as indicated in the Figure. Human amylin concentration was approximately 4 μM. Spectra were collected at 1 nm intervals in a 0.1 cm path length quartz cell (FIG. 9E). The stock solution of monomeric amylin in 100% HFIP was diluted to 4% HFIP in 100 mM potassium chloride/50 mM potassium phosphate buffer (pH 7.4) containing 200 μM Amaranth. Human amylin concentration was approximately 4 μM. Spectra were collected at 1 nm intervals in a 0.1 cm path length quartz cell (FIG. 9F).

[6] = 1200 μM compound, 60 μM human amylin, 10 mM tris pH 7.4, 24 h (FIG. 6)
[7] = 1200 μM compound (20-fold molar excess), 60 μM human amylin, over 24 h (FIG. 3)

Compound: CN(C)[C@@H]1C(=O)C(C(N)=O)=C(O)[C@@]2(O)C(=O)C3=C(O)c4c(O)cccc4[C@@](C)(O)[C@H]3C[C@@H]12 [tetracycline]
reduction in the incorporation of radioactive human amylin into precipitable amylin fibrils ([1]; 100 μM tetracycline, 10 μM human amylin, 16,000×g): ~50%
percentage of precipitable amylin fibrils on centrifugation at 100,000×g ([1]; 100 μM tetracycline, 10 μM human amylin, 100,000×g (FIG. 7B)): unaffected
percentage of precipitable amyloid, after the decrease ([1]; 200 μM tetracycline, 10 μM human amylin, 50 h incubation period): ~60%
percentage of precipitable amyloid, before the decrease ([1]; 200 μM tetracycline, 10 μM human amylin, start of the decrease): approximately 85%
rate of formation of human amylin fibrils (electron microscopy) ([2]; 700 μM tetracycline, 70 μM human amylin, 1.5 hours and 5 hours): appears to slow the rate of formation of human amylin fibrils
morphology of human amylin fibrils (electron microscopy) ([2]; 700 μM tetracycline, 70 μM human amylin, 29 hours and 48 hours): short fragmented fibrils
morphology of human amylin fibrils (electron microscopy) [2, 6]: short fragmented structures
morphology of pre-formed amylin fibrils (electron microscopy) ([2]; human amylin pre-incubated for 20 h, then tetracycline for 48 h): fragments of amylin fibrils interdispersed with smaller fibrils
intrinsic cytotoxicity of compound to RINm5F β cells ([3]; relative molar ratios which produced suppression of amyloid aggregation (low μM)): cytotoxic
enhancement of thioflavin-T fluorescence by human amylin ([4]; 700 μM compound, 70 μM human amylin, 10 mM tris pH 7.4, over 72 hours (FIG. 1)): initial but significantly decreased formation of a mylin fibril-associated fluorescence up to 2 h ours, followed by a gradual decrease in fluorescence
enhancement of thioflavin-T fluorescence by human amylin [4, 7]: immediate increase in fluorescence occurred, followed by a gradual decrease in fluorescence over the next 24 h

Compound: human amylin
cytotoxicity of amylin peptide to RINm5F cells [3]: significant increase in cell death

Compound: CN(C)c1ccc2nc3ccc(N(C)C)cc3[s+]c2c1 [methylene blue]
effect on precipitable amyloid formation [1]: no effects on amyloid formation
effect on precipitable amyloid formation ([1]; listed as Methylene blue): no effect
enhancement of thioflavin-T fluorescence by human amylin [4, 7]: no increase in thioflavin-T enhanced fluorescence
enhancement of thioflavin-T fluorescence by human amylin ([4]; 1200 μM compound (20-fold molar excess), 60 μM human amylin, over 24 h (FIG. 3), listed as Methylene blue): complete inhibition

Compound: c1ccc2nc3ccccc3cc2c1 [acridine]
effect on precipitable amyloid formation [1]: no effects on amyloid formation
enhancement of thioflavin-T fluorescence by human amylin [4, 7]: moderate reduction in thioflavin-T enhanced fluorescence

Compound: O=S(=O)([O-])c1ccc2c(N=Nc3ccc(S(=O)(=O)[O-])c4ccccc34)c(O)c(S(=O)(=O)[O-])cc2c1.[Na+].[Na+].[Na+] [Amaranth]
effect on β-conformer formation of human amylin (circular dichroism) [5]: prevents formation of β-conformers and instead arrests the amylin peptide in an α-helical conformation

Compound: rat amylin: synthetic rat amylin from Bachem; non-fibril forming control
cytotoxicity of amylin peptide to RINm5F cells [3]: not cytotoxic

Compound: CCN(CC)CCCC(C)Nc1c2ccc(Cl)cc2nc2ccc(OC)cc12 (stereo not drawn) [quinacrine]
rate of human amylin fibril formation (electron microscopy) ([2]; 7000 μM quinacrine, 70 μM human amylin, 1.5, 5 and 26 hours): appears to slow the rate of human amylin fibril formation
morphology of human amylin fibrils (electron microscopy) ([2]; 7000 μM quinacrine, 70 μM human amylin, 5 hours and 26 hours): large aggregates with few defined fibrils

Compound: CN(C)CCCN1c2ccccc2Sc2ccc(Cl)cc21 [chlorpromazine]
effect on precipitable amyloid formation [1]: no effects on amyloid formation
morphology of human amylin fibrils (electron microscopy) [2, 6]: still formed characteristic amylin fibrils
inhibition of amylin fibril formation ([4]; 700 μM chlorpromazine, 70 μM human amylin, over 24 hours (FIG. 2)): approximately 60%
enhancement of thioflavin-T fluorescence by human amylin [4, 7]: little inhibition of amylin fibril associated thioflavin-T fluorescence enhancement

effect on precipitable amyloid formation [1]: no effects on amyloid formation
Compound: Cc1ccc2c(c1)sc(-c1ccc(N(C)C)cc1)[n+]2C.[Cl-] [thioflavin-T]
